From ChEMBL document CHEMBL6109078, “Pyrylium derivatives as outer membrane permeabilizers against MDR gram-negative bacteria via multi-target mode of action” (Eur J Med Chem, 2025) come the findings set out here.

A value given as a limit tells only on which side of the number the result lay.

Assay type in all cases: functional
Test [1] deals with Acinetobacter baumannii. The experiment in a line: Antibacterial activity against Acinetobacter baumannii ATCC 19606 assessed as inhibition of bacterial growth by CLSI protocol based method.
The subject of test [2] is Escherichia coli. The test can be described thus: Antibacterial activity against Escherichia coli ATCC 25922 assessed as inhibition of bacterial growth by CLSI protocol based method.
Test [3] concerns Escherichia coli. The experiment in a line: Antibacterial activity against ESBL positive Escherichia coli ATCC 35218 assessed as inhibition of bacterial growth by CLSI protocol based method.
The subject of test [4] is Klebsiella pneumoniae. The test can be described thus: Antibacterial activity against Klebsiella pneumoniae ATCC 700603 assessed as inhibition of bacterial growth by CLSI protocol based method.
The test system of test [5] is Klebsiella pneumoniae. The experiment in a line: Antibacterial activity against Klebsiella pneumoniae BAA ATCC 1706 assessed as inhibition of bacterial growth by CLSI protocol based method.
For test [6], the system named is Pseudomonas aeruginosa. The test can be described thus: Antibacterial activity Pseudomonas aeruginosa ATCC 27853 assessed as inhibition of bacterial growth by CLSI protocol based method.
Test [7] has as its system Pseudomonas aeruginosa. The experiment in a line: Antibacterial activity Pseudomonas aeruginosa PAO1 assessed as inhibition of bacterial growth by CLSI protocol based method.
Test [8] concerns Acinetobacter baumannii. The test can be described thus: Antibacterial activity against multi-drug resistant Acinetobacter baumannii clinical isolate 5 assessed as inhibition of bacterial growth by CLSI protocol based method.
Test [9] deals with Acinetobacter baumannii. The experiment in a line: Antibacterial activity against multi-drug resistant Acinetobacter baumannii clinical isolate 10 assessed as inhibition of bacterial growth by CLSI protocol based method.
For test [10], the system named is Acinetobacter baumannii. The experiment in a line: Antibacterial activity against multi-drug resistant Acinetobacter baumannii clinical isolate 2 assessed as inhibition of bacterial growth by CLSI protocol based method.
Test [11] has as its system Acinetobacter baumannii. The test can be described thus: Antibacterial activity against multi-drug resistant Acinetobacter baumannii clinical isolate 4 assessed as inhibition of bacterial growth by CLSI protocol based method.
In test [12] the test system is Acinetobacter baumannii. The experiment in a line: Antibacterial activity against multi-drug resistant Acinetobacter baumannii clinical isolate 51 assessed as inhibition of bacterial growth by CLSI protocol based method.
Test [13] deals with Acinetobacter baumannii. The experiment in a line: Antibacterial activity against multi-drug resistant Acinetobacter baumannii clinical isolate 14 assessed as inhibition of bacterial growth by CLSI protocol based method.
Test [14] deals with Acinetobacter baumannii. The experiment in a line: Antibacterial activity against multi-drug resistant Acinetobacter baumannii clinical isolate 1 assessed as inhibition of bacterial growth by CLSI protocol based method.
In test [15] the test system is Acinetobacter baumannii. The test can be described thus: Antibacterial activity against multi-drug resistant Acinetobacter baumannii clinical isolate 43 assessed as inhibition of bacterial growth by CLSI protocol based method.

As to `Cn1c(=O)n(C)c2cc(/C=C/c3cc(C(C)(C)C)[o+]c(C(C)(C)C)c3)ccc21.O=S(=O)([O-])C(F)(F)F`, the MIC in test [1], in [2], in test [3], in [4], in [5] and in test [6] was over 100 µg/mL each time. Besides, the MIC (as a rule, the lowest concentration found to suppress growth) in [7] is over 100 µg/mL.

As to `CN(CCC#N)c1ccc(/C=C/c2cc(C(C)(C)C)[o+]c(C(C)(C)C)c2)cc1.O=S(=O)([O-])C(F)(F)F`, the MIC in test [1], in [2], in [3], in [4], in test [5] and in [6] was over 100 µg/mL each time. In test [7], the minimum inhibitory concentration (MIC) was over 100 µg/mL.

For `CCCCN(CCCC)c1ccc(/C=C/c2cc(C(C)(C)C)[o+]c(C(C)(C)C)c2)cc1.O=S(=O)([O-])C(F)(F)F`, the minimum inhibitory concentration (MIC) in test [1], in test [2], in test [3], in [4], in test [5] and in test [6] was over 100 µg/mL throughout. Besides, the minimal inhibitory concentration (MIC) in [7] is over 100 µg/mL.

`CNC(C)[C@@H]1CC[C@@H](N)[C@@H](O[C@H]2[C@H](O)[C@@H](O[C@H]3OC[C@](C)(O)[C@H](NC)[C@H]3O)[C@H](N)C[C@@H]2N)O1.CN[C@@H]1[C@@H](O)[C@@H](O[C@@H]2[C@@H](O)[C@H](O[C@H]3O[C@H](C(C)N)CC[C@H]3N)[C@@H](N)C[C@H]2N)OC[C@]1(C)O.CN[C@@H]1[C@@H](O)[C@@H](O[C@@H]2[C@@H](O)[C@H](O[C@H]3O[C@H](CN)CC[C@H]3N)[C@@H](N)C[C@H]2N)OC[C@]1(C)O` (stereo partly drawn): the minimum inhibitory concentration (MIC) was 0.78 µg/mL in test [1]; 6.25 µg/mL in test [4]; 1.56 µg/mL in [5]; 0.78 µg/mL in test [6]; 0.2 µg/mL in [7]; over 100 µg/mL in test [8]. Further, the minimal inhibitory concentration (MIC) in [9], in test [10], in test [11], in [12], in test [13] and in test [14] was over 100 µg/mL throughout. The minimum inhibitory concentration (MIC) in [15] is over 100 µg/mL.

For the compound `CCCN(CCC)c1ccc(/C=C/c2cc(C(C)(C)C)[o+]c(C(C)(C)C)c2)cc1.O=S(=O)([O-])C(F)(F)F`, the MIC in test [1], in test [2], in [3], in [4], in test [5] and in test [6] was over 100 µg/mL throughout. Further, in test [7], the MIC was over 100 µg/mL.

For `CC(=O)OCCN(CCOC(C)=O)c1ccc(/C=C/c2cc(C(C)(C)C)[o+]c(C(C)(C)C)c2)cc1.O=S(=O)([O-])C(F)(F)F`, the MIC in [1], in test [2], in test [3], in [4], in test [5] and in test [6] was over 100 µg/mL each time. In addition, in [7], the MIC was over 100 µg/mL.

On to `CC(C)Oc1ccc(/C=C/c2cc(C(C)(C)C)[o+]c(C(C)(C)C)c2)cc1.O=S(=O)([O-])C(F)(F)F`, for which the MIC in test [1], in [2], in [3], in test [4], in test [5] and in test [6] was over 100 µg/mL in each case. Besides, the minimum inhibitory concentration (MIC) in test [7] is over 100 µg/mL.

For the compound `CN(C)c1ccc(/C=C/C=C/c2cc(C(C)(C)C)[o+]c(C(C)(C)C)c2)cc1.O=S(=O)([O-])C(F)(F)F`, the MIC in test [1], in [2], in test [3], in [4], in test [5] and in test [6] was over 100 µg/mL throughout. The minimal inhibitory concentration (MIC) in [7] was over 100 µg/mL.

Turning to `CCn1c2ccccc2c2cc(/C=C/c3cc(C(C)(C)C)[o+]c(C(C)(C)C)c3)ccc21.O=S(=O)([O-])C(F)(F)F`, the minimum inhibitory concentration (MIC) in test [1], in [2], in test [3], in test [4], in [5] and in [6] was over 100 µg/mL throughout. Further, the MIC in [7] is over 100 µg/mL.

On to `CC(C)(C)c1cc(/C=C/c2ccc(N3CCCCC3)cc2)cc(C(C)(C)C)[o+]1.O=S(=O)([O-])C(F)(F)F`, for which the MIC in test [1] is 50 µg/mL; in [2], over 100 µg/mL; in [3], over 100 µg/mL; in test [4], over 100 µg/mL; in [5] it was over 100 µg/mL; in test [6], over 100 µg/mL. Moreover, in [7], the minimal inhibitory concentration (MIC) is over 100 µg/mL.

For `CC(C)(C)c1cc(/C=C/c2ccc(N3CCOCC3)cc2)cc(C(C)(C)C)[o+]1.O=S(=O)([O-])C(F)(F)F`, the MIC in test [1], in [2], in test [3], in test [4], in [5] and in test [6] was over 100 µg/mL each time. The minimum inhibitory concentration (MIC) in [7] was over 100 µg/mL.

As for `CC(C)(C)c1cc(NC(=O)/C=C/c2cc3ccccc3o2)cc(C(C)(C)C)c1`, the MIC in test [1], in test [2], in [3], in [4], in [5] and in test [6] was over 100 µg/mL throughout. Moreover, the minimal inhibitory concentration (MIC) in [7] is over 100 µg/mL.

As to `CC(C)(C)c1cc(NC(=O)/C=C/C=C/c2ccccc2Cl)cc(C(C)(C)C)c1`, the MIC in [1], in test [2], in test [3], in test [4], in test [5] and in test [6] was over 100 µg/mL in each case. In addition, the MIC in test [7] is over 100 µg/mL.

For the compound `CC(C)(C)c1cc(/C=C/c2ccc3c(c2)CCO3)cc(C(C)(C)C)[o+]1.O=S(=O)([O-])C(F)(F)F`, the minimum inhibitory concentration (MIC) in [1], in test [2], in [3], in test [4], in test [5] and in test [6] was over 100 µg/mL in each case. Moreover, the minimal inhibitory concentration (MIC) in [7] is over 100 µg/mL.

As for `COc1ccc(/C=C/c2cc(C(C)(C)C)[o+]c(C(C)(C)C)c2)c(Cl)c1.O=S(=O)([O-])C(F)(F)F`, the minimum inhibitory concentration (MIC) in test [1], in test [2], in [3], in test [4], in test [5] and in test [6] was over 100 µg/mL throughout. The MIC in test [7] is over 100 µg/mL.

Regarding `CC(C)(C)c1cc(/C=C/c2ccc(N(CCCl)CCCl)cc2)cc(C(C)(C)C)[o+]1.O=S(=O)([O-])C(F)(F)F`, the MIC in [1], in test [2], in test [3], in test [4], in [5] and in test [6] was over 100 µg/mL throughout. Besides, the minimal inhibitory concentration (MIC) in test [7] is over 100 µg/mL.

For `CN(CCCl)c1ccc(/C=C/c2cc(C(C)(C)C)[o+]c(C(C)(C)C)c2)cc1.O=S(=O)([O-])C(F)(F)F`, the minimum inhibitory concentration (MIC) in test [1], in test [2], in [3], in test [4], in test [5] and in [6] was over 100 µg/mL throughout. Moreover, the MIC in test [7] is over 100 µg/mL.

For `CC(C)(C)c1cc(/C=C/c2ccc(N(c3ccccc3)c3ccccc3)cc2)cc(C(C)(C)C)[o+]1.O=S(=O)([O-])C(F)(F)F`, the MIC in test [1], in [2], in test [3], in test [4], in [5] and in test [6] was over 100 µg/mL each time. In test [7], the MIC is over 100 µg/mL.

Turning to `CCN(CCCl)c1ccc(/C=C/c2cc(C(C)(C)C)[o+]c(C(C)(C)C)c2)cc1.O=S(=O)([O-])C(F)(F)F`, the MIC in test [1], in [2], in test [3], in [4], in test [5] and in test [6] was over 100 µg/mL in each case. Moreover, the minimum inhibitory concentration (MIC) in test [7] is over 100 µg/mL.

Take `CC(C)(C)c1cc(NC(=O)/C=C/C=C/c2ccccc2)cc(C(C)(C)C)c1`: the MIC in test [1], in [2], in test [3], in test [4], in [5] and in test [6] was over 100 µg/mL each time. In test [7], the MIC was over 100 µg/mL.

For `CCOc1ccc(/C=C/c2cc(C(C)(C)C)[o+]c(C(C)(C)C)c2)cc1OC.O=S(=O)([O-])C(F)(F)F`, the minimal inhibitory concentration (MIC) in [1], in test [2], in [3], in test [4], in test [5] and in test [6] was over 100 µg/mL each time. The MIC in test [7] was over 100 µg/mL.
